Assays:
[1] = tested on: sstr2 gene; assay: Real-time PCR, sstr2 mRNA gene expression in IMR5 cells; format: cell-based, human; conditions: SST14 10µM, 5,30,60,120 min (fig.1B)
Method: (§1) Real-time PCR analyses were carried out to quantify expression of the selected sstrs genes in IMR5, DMS114, and MRC5 cells. Total RNA was isolated using the Qiagen RNeasy Mini Kit in accordance with the manufacturer's instructions. cDNA synthesis were performed using GeneAmp® RNA PCR Core Kit (Roche, New Jersey, U.S.A.). The expression levels of sstrs mRNA were evaluated by qualitative RT-PCR using the specific primers.
(§2) Relative quantitative PCR (qPCR) was carried out in 25 µl final volume utilizing 3 µl of cDNA, 0.2 µM of each specific primers, using SYBRgreen reagents according to the manufacturer's instructions. PCR reactions comprised 40 cycles after an initial denaturation step (95°C, 10 min) according to the parameters: denaturation at 95°C, 15 sec and annealing/extension at 60°C, 1 min, in an ABI PRISM 7700 Sequence Detection system. To normalize the RNA amount of the extracted samples, real-time PCR analysis of the human GAPDH cDNA was carried out. Moreover, we optimized the method for relative quantification with sequence-specific DNA probes for sstr2 and sstr5 genes TaqMan reagents using kit TaqMan Gene Expression Assays according to the manufacturer's instructions (Applied Biosystem, Milan, Italy). The relative quantification of a target template in the samples was evaluated using the 2^-ΔΔCT method. All experiments were conducted in triplicate.

[2] = tested on: Sstr5 gene; assay: Real-time PCR, sstr5 mRNA gene expression in IMR5 cells; format: cell-based, human; conditions: AE 50µM, SST14 10µM, 5,30,60,120 min (fig.1B)
Method: as §1, §2

[3] = tested on: sstr2 gene; assay: Real-time PCR, sstr2 mRNA gene expression in MRC5 cells; format: cell-based, human; conditions: AE 50µM, SST14 10µM, 5,30,60,120 min (fig.1B)
Method: as §1, §2

[4] = state of the art statement; cited from earlier work

## SST14: somatostatin peptide containing 14 amino acids; natural ligand of somatostatin receptors
[1]
  sstr2 gene expression: up-regulated
[2]
  Sstr5 gene expression: up-regulated
[3]
  sstr2 gene expression: significantly upregulated
[4]
  plasma half-life: < 3 min
